# Experimental data as given in US12577231B2, “Androgen receptor PROTACS” (GlaxoSmithKline Intellectual Property Development Limited, priority 2023, dated 2026).
# Target: T1, Androgen Receptor dual T878A/L702H mutant protein (Homo sapiens, UniProt P10275, L702H/T878A)
# T1 construct: host or cells: MDA-PCa-2b
# T1 sequence (P10275 1-920 L702H/T878A): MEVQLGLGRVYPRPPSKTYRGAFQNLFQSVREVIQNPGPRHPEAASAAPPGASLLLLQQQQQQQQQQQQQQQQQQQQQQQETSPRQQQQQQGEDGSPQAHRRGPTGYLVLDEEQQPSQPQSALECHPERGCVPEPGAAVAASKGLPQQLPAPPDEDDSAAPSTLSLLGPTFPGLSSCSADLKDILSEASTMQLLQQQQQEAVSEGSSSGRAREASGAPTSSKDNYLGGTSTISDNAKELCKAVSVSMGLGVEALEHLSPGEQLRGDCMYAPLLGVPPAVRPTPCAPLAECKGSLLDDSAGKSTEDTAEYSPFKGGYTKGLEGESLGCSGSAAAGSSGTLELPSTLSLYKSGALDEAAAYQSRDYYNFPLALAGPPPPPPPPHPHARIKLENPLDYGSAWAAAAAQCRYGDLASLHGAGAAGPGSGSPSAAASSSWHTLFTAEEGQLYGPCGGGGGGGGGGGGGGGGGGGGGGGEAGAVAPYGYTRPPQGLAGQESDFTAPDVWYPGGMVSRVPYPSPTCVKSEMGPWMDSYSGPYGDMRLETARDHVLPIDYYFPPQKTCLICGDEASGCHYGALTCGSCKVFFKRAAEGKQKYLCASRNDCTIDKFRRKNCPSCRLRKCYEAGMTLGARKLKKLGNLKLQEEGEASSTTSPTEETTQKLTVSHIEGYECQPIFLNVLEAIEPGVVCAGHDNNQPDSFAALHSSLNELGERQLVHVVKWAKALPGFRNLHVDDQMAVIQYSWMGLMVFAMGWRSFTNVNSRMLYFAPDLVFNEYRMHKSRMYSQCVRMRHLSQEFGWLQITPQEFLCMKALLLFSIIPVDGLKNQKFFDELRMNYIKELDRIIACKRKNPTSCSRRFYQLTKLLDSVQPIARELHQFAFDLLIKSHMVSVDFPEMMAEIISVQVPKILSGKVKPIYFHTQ
# Experiment: Dual Mutant (T878A/L702H) Androgen Receptor Degradation Assay (HTRF, MDA-PCa-2b cells)
# Type: cell-based
# Settings: 18 h, 18 h incubation, read-out: mean asymptote max
# How it was run: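 PROTACs tested as 11-point, 3-fold dilutions on 10,000 cells for 18 h at 37 °C. Remaining AR read by HTRF (665/620 nm ratio) after lysis, normalised to DMSO-treated cells (0%) and cell-free medium (100%). Relative DC50 from 4-parameter fit inflection, absolute DC50 interpolated at 50% degradation; Dmax is maximum observed degradation.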
row,Compound,Dmax [%]
1,"CC1(C)[C@H](NC(=O)c2ccc(N3CCC(CN4CC[C@@H](n5ncc6c(N7CCC(=O)NC7=O)cccc65)[C@@H](F)C4)CC3)c(F)c2)C(C)(C)[C@H]1Oc1ccc(C#N)c2ncccc12 [Example 45, N-((1r,3r)-3-((8-Cyanoquinolin-5-yl)oxy)-2,2,4,4-tetramethylcyclobutyl)-4-(4-(((35,4R)-4-(4-(2,4-dioxotetrahydropyrimidin-1(2H)-yl)-1H-indazol-1-yl)-3-fluoropiperidin-1-yl)methyl)piperidin-1-yl)-3-fluorobenzamide]",49
2,"CC1(C)[C@H](NC(=O)c2ccc(N3CCC(CN4CC[C@H](n5ncc6c(N7CCC(=O)NC7=O)cccc65)C4)CC3)c(F)c2)C(C)(C)[C@H]1Oc1ccc(C#N)c2ncccc12 [Example 37, N-((1r,3r)-3-((8-Cyanoquinolin-5-yl)oxy)-2,2,4,4-tetramethylcyclobutyl)-4-(4-(((S)-3-(4-(2,4-dioxotetrahydropyrimidin-1(2H)-yl)-1H-indazol-1-yl)pyrrolidin-1-yl)methyl)piperidin-1-yl)-3-fluorobenzamide]",≥ 50
3,"CC1(C)[C@H](NC(=O)c2ccc(N3CCC(CN4CCC(n5ncc6c(N7CCC(=O)NC7=O)nccc65)CC4)CC3)c(F)c2)C(C)(C)[C@H]1Oc1ccc(C#N)c2ncccc12 [Example 39, N-((1r,3r)-3-((8-Cyanoquinolin-5-yl)oxy)-2,2,4,4-tetramethylcyclobutyl)-4-(4-((4-(4-(2,4-dioxotetrahydropyrimidin-1(2H)-yl)-1H-pyrazolo[4,3-c]pyridin-1-yl)piperidin-1-yl)methyl)piperidin-1-yl)-3-fluorobenzamide]",≥ 50
4,"CC1(C)[C@H](NC(=O)c2ccc(N3CCC4(CC3)CC(N3CCC(n5ncc6c(N7CCC(=O)NC7=O)cccc65)CC3)C4)c(F)c2)C(C)(C)[C@H]1Oc1ccc(C#N)c2ncccc12 [Example 49, N-((1r,3r)-3-((8-Cyanoquinolin-5-yl)oxy)-2,2,4,4-tetramethylcyclobutyl)-4-(2-(4-(4-(2,4-dioxotetrahydropyrimidin-1(2H)-yl)-1H-indazol-1-yl)piperidin-1-yl)-7-azaspiro[3.5]nonan-7-yl)-3-fluorobenzamide]",≥ 50
5,"CC1(C)[C@H](NC(=O)c2ccc(N3CCC(O)(CN4CCC(n5ncc6c(N7CCC(=O)NC7=O)cccc65)CC4)CC3)c(F)c2)C(C)(C)[C@H]1Oc1ccc(C#N)c2ncccc12 [Example 48, N-((1r,3r)-3-((8-Cyanoquinolin-5-yl)oxy)-2,2,4,4-tetramethylcyclobutyl)-4-(4-((4-(4-(2,4-dioxotetrahydropyrimidin-1(2H)-yl)-1H-indazol-1-yl)piperidin-1-yl)methyl)-4-hydroxypiperidin-1-yl)-3-fluorobenzamide]",≥ 50
6,"CC1(C)[C@H](NC(=O)c2ccc(N3CC[C@H](CN4CCC(n5ncc6c(N7CCC(=O)NC7=O)cccc65)CC4)C3)c(F)c2)C(C)(C)[C@H]1Oc1ccc(C#N)c2ncccc12 [Example 34, N-((1r,3R)-3-((8-Cyanoquinolin-5-yl)oxy)-2,2,4,4-tetramethylcyclobutyl)-4-((R)-3-((4-(4-(2,4-dioxotetrahydropyrimidin-1(2H)-yl)-1H-indazol-1-yl)piperidin-1-yl)methyl)pyrrolidin-1-yl)-3-fluorobenzamide]",≥ 50
7,"CC1(C)[C@H](NC(=O)c2ccc(N3CCC(CN4CCC(n5ncc6c(N7CCC(=O)NC7=O)cccc65)CC4)CC3)c(F)c2)C(C)(C)[C@H]1Oc1ccc(C#N)c2ncccc12 [Example 6, N-((1r,3r)-3-((8-Cyanoquinolin-5-yl)oxy)-2,2,4,4-tetramethylcyclobutyl)-4-(4-((4-(4-(2,4-dioxotetrahydropyrimidin-1(2H)-yl)-1H-indazol-1-yl)piperidin-1-yl)methyl)piperidin-1-yl)-3-fluorobenzamide]",≥ 50
8,"CC1(C)[C@H](NC(=O)c2ccc(N3CCC(CN4CCC(n5ncc6c(N7CCC(=O)NC7=O)cc(C(F)(F)F)cc65)CC4)CC3)c(F)c2)C(C)(C)[C@H]1Oc1ccc(C#N)c2ncccc12 [Example 42, N-((1r,3r)-3-((8-Cyanoquinolin-5-yl)oxy)-2,2,4,4-tetramethylcyclobutyl)-4-(4-((4-(4-(2,4-dioxotetrahydropyrimidin-1(2H)-yl)-6-(trifluoromethyl)-1H-indazol-1-yl)piperidin-1-yl)methyl)piperidin-1-yl)-3-fluorobenzamide]",≥ 50

# Next, values leading:
row,Dmax [%],Compound
1,≥ 50,"CC1(C)[C@H](NC(=O)c2ccc(N3CCC(CN4CCC(n5ccc6c(N7CCC(=O)NC7=O)cccc65)CC4)CC3)cc2)C(C)(C)[C@H]1Oc1ccc(C#N)c2ncccc12 [Example 43, N-((1r,3r)-3-((8-Cyanoquinolin-5-yl)oxy)-2,2,4,4-tetramethylcyclobutyl)-4-(4-((4-(4-(2,4-dioxotetrahydropyrimidin-1(2H)-yl)-1H-indol-1-yl)piperidin-1-yl)methyl)piperidin-1-yl)benzamide]"
2,≥ 50,"CC1(C)[C@H](NC(=O)c2ccc(N3CCC(CN4CCC(n5ncc6c(N7CCC(=O)NC7=O)cccc65)CC4)CC3)c(F)c2)C(C)(C)[C@H]1Oc1ccc(C#N)c2c1CCCO2 [Example 8, N-((1r,3r)-3-((8-Cyanochroman-5-yl)oxy)-2,2,4,4-tetramethylcyclobutyl)-4-(4-((4-(4-(2,4-dioxotetrahydropyrimidin-1(2H)-yl)-1H-indazol-1-yl)piperidin-1-yl)methyl)piperidin-1-yl)-3-fluorobenzamide]"
3,≥ 50,"CC1(C)[C@H](NC(=O)c2ccc(N3CCC(CN4CCC(n5ccc6c(N7CCC(=O)NC7=O)ncnc65)CC4)CC3)c(F)c2)C(C)(C)[C@H]1Oc1ccc(C#N)c2ncccc12 [Example 47, N-((1r,3r)-3-((8-Cyanoquinolin-5-yl)oxy)-2,2,4,4-tetramethylcyclobutyl)-4-(4-((4-(4-(2,4-dioxotetrahydropyrimidin-1(2H)-yl)-7H-pyrrolo[2,3-d]pyrimidin-7-yl)piperidin-1-yl)methyl)piperidin-1-yl)-3-fluorobenzamide]"
4,≥ 50,"CC1(C)[C@H](NC(=O)c2ccc(N3CCC(CN4CCC(n5ccc6c(N7CCC(=O)NC7=O)cc(F)cc65)CC4)CC3)c(F)c2)C(C)(C)[C@H]1Oc1ccc(C#N)c2ncccc12 [Example 32, N-((1r,3r)-3-((8-Cyanoquinolin-5-yl)oxy)-2,2,4,4-tetramethylcyclobutyl)-4-(4-((4-(4-(2,4-dioxotetrahydropyrimidin-1(2H)-yl)-6-fluoro-1H-indol-1-yl)piperidin-1-yl)methyl)piperidin-1-yl)-3-fluorobenzamide]"
5,≥ 50,"COc1cc(O[C@H]2C(C)(C)[C@H](NC(=O)c3ccc(N4CCC(CN5CC[C@@H](n6ncc7c(N8CCC(=O)NC8=O)cccc76)[C@@H](F)C5)CC4)c(F)c3)C2(C)C)ccc1C#N [Example 27, N-((1r,3r)-3-(4-Cyano-3-methoxyphenoxy)-2,2,4,4-tetramethylcyclobutyl)-4-(4-(((3,4R)-4-(4-(2,4-dioxotetrahydropyrimidin-1(2H)-yl)-1H-indazol-1-yl)-3-fluoropiperidin-1-yl)methyl)piperidin-1-yl)-3-fluorobenzamide]"
6,≥ 50,"CC1(C)[C@H](NC(=O)c2ccc(N3CCC(CN4CCC(n5ncc6c(N7CCC(=O)NC7=O)cc(Cl)cc65)CC4)CC3)c(F)c2)C(C)(C)[C@H]1Oc1ccc(C#N)c2ncccc12 [Example 41, 4-(4-((4-(6-Chloro-4-(2,4-dioxotetrahydropyrimidin-1(2H)-yl)-1H-indazol-1-yl)piperidin-1-yl)methyl)piperidin-1-yl)-/-((1r,3r)-3-((8-cyanoquinolin-5-yl)oxy)-2,2,4,4-tetramethylcyclobutyl)-3-fluorobenzamide]"
7,≥ 50,"CC1(C)[C@H](NC(=O)c2ccc(N3CCC(CN4CCC(n5ccc6c(N7CCC(=O)NC7=O)ncnc65)CC4)CC3)cc2)C(C)(C)[C@H]1Oc1ccc(C#N)c2ncccc12 [Example 28, N-((1r,3r)-3-((8-Cyanoquinolin-5-yl)oxy)-2,2,4,4-tetramethylcyclobutyl)-4-(4-((4-(4-(2,4-dioxotetrahydropyrimidin-1(2H)-yl)-7H-pyrrolo[2,3-d]pyrimidin-7-yl)piperidin-1-yl)methyl)piperidin-1-yl)benzamide]"
8,≥ 50,"COc1cc(O[C@H]2C(C)(C)[C@H](NC(=O)c3ccc(N4CCC(CN5CCC(n6ncc7c(N8CCC(=O)NC8=O)cccc76)CC5)CC4)cc3)C2(C)C)ccc1C#N [Example 15, N-((1r,3r)-3-(4-Cyano-3-methoxyphenoxy)-2,2,4,4-tetramethylcyclobutyl)-4-(4-((4-(4-(2,4-dioxotetrahydropyrimidin-1(2H)-yl)-1H-indazol-1-yl)piperidin-1-yl)methyl)piperidin-1-yl)benzamide]"
